Values of other authors in patent US6964953B2, “Methods for treating stress disorders using glucocorticoid receptor-specific antagonists” (Corcept Therapeutics, Inc., priority 2001, dated 2005).

What was measured:
rat hippocampus = settings: Talmi et al. 1996
[1] = in one study; Kawai (1989)
[2] = test system: mouse hippocampus neuronal cells; settings: Behl et al. 1997
progesterone receptor = molecular target: T1, progesterone receptor (Homo sapiens, UniProt P06401); settings: result in words
T1 sequence (P06401 1-933): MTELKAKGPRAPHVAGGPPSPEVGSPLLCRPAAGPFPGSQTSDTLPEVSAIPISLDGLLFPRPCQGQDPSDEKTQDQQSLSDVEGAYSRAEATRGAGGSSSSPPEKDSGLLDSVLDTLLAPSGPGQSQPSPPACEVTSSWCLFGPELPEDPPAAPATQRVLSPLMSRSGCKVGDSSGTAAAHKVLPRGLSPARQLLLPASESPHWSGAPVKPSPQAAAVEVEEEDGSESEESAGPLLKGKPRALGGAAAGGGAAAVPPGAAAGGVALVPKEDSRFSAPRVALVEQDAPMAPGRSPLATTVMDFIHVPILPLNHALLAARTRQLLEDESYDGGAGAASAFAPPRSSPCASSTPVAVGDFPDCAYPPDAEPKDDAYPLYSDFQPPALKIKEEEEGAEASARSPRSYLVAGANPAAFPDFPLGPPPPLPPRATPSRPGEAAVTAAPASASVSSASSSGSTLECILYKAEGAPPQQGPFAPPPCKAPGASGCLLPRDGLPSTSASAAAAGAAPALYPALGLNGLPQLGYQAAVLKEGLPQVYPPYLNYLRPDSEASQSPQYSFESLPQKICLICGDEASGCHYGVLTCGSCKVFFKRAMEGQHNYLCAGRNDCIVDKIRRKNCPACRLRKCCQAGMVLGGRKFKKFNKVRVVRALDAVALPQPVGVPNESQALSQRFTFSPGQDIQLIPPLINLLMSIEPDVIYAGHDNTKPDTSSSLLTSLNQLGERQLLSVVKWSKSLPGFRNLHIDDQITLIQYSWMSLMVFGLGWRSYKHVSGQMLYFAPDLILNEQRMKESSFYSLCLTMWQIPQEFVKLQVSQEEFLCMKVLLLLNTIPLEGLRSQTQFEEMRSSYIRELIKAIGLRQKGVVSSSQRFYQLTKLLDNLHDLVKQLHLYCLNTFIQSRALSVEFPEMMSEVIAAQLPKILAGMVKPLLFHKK

[3] = molecular target: T2, glucocorticoid (GR) receptor (Homo sapiens, UniProt P04150); settings: result in words
T2 sequence (P04150 1-777): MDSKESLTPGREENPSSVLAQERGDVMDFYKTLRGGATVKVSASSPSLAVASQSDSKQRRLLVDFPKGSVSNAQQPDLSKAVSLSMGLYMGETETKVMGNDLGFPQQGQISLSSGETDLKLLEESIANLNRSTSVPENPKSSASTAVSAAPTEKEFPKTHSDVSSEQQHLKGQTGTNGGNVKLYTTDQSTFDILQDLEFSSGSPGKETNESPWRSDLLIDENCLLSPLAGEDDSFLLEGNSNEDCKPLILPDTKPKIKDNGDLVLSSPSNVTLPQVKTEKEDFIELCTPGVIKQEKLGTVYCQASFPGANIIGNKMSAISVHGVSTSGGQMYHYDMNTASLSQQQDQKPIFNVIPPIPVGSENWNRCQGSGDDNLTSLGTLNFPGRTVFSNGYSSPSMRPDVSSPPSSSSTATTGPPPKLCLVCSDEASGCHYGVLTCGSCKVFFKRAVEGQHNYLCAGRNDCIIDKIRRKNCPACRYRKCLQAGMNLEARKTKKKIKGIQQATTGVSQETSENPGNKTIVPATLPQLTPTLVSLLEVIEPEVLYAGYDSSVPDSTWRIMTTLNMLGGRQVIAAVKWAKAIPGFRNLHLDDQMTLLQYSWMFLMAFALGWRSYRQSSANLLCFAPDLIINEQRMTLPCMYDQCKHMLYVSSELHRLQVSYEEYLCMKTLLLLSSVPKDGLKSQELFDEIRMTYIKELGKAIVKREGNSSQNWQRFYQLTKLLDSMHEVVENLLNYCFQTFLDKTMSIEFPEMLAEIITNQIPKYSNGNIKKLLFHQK

CC#C[C@]1(O)CC[C@H]2[C@@H]3CCC4=CC(=O)CCC4=C3[C@@H](c3ccc(N(C)C)cc3)C[C@@]21C [Mifepristone, 17-beta-hydroxy-11-beta-(4-dimethyl-aminophenyl)-17-alpha-(1-propynyl)-estra-4,9-dien-3-one]
abrogation of age-associated electrophysiological changes (rat hippocampus): effective at abrogating some of the age-associated electrophysiological changes | daily dose excreted in the urine [1]: less than 0.5% | protection against oxidative stress-induced neuronal cell death [2]: providing protection against oxidative stress-induced neuronal cell death | progesterone receptor antagonist activity (progesterone receptor): powerful antagonist | GR antagonist activity [3]: powerful antagonist

CC#C[C@]1(O)CC[C@H]2[C@@H]3CCC4=CC(=O)CCC4=C3[C@@H](c3ccc(OCCN(C)C)cc3)C[C@@]21C [RU009, 11-beta-(4-dimethyl-aminoethoxyphenyl)-17-alpha-(propynyl-17 beta-hydroxy-4,9-estradien-3-one)]
GR antagonist activity [3]: shown to have GR antagonist effects
